The subject of one test is RXF 393. The test can be described thus: Cytotoxicity against human RXF 393 cells assessed as inhibition of cell viability incubated for 72 hrs under hypoxia condition by MTT assay. The class given is functional, cell-based. The following applies: RXF 393, 72 h. In general terms: Tetrazolium dyes change colour on reduction, which living cells bring about.
In test [1] the test system is SK-MEL-5. Nature of the test: Induction of apoptosis in human SK-MEL-5 cells assessed as caspase 9 activation incubated for 24 hrs by Western blotting analysis. In kind it is functional, cell-based.
For test [2], the system named is SK-MEL-5. Nature of the test: Induction of apoptosis in human SK-MEL-5 cells assessed as caspase 3 activation incubated for 24 hrs by Western blotting analysis. In kind it is functional, cell-based. In general terms: In western blotting, separated proteins are transferred to a membrane and probed.
Test [3] relates to SK-MEL-5. The test can be described thus: Induction of ROS generation in human SK-MEL-5 cells assessed as increase in intracellular ROS level incubated for 1 hrs by H2DCFDA probe based fluorometry analysis relative to control. The class given is functional.
Test [4] concerns SK-MEL-5. The test can be described thus: Cytotoxicity against human SK-MEL-5 cells assessed as inhibition of cell viability incubated for 72 hrs under hypoxia condition by MTT assay. The class given is functional, cell-based. The following applies: SK-MEL-5, 72 h.
In the next test the test system is HCC 2998. The test can be described thus: Cytotoxicity against human HCC 2998 cells assessed as inhibition of cell viability incubated for 72 hrs under hypoxia condition by MTT assay. In kind it is functional, cell-based. The following applies: HCC 2998, 72 h.
Test [5] concerns SK-MEL-5. Nature of the test: Induction of apoptosis in human SK-MEL-5 cells assessed as early apoptotic cells at 10 uM incubated for 24 hrs by Annexin-V/FITC and PI staining based flow cytometry analysis (reference value: 0.61 %). The class given is functional. In general terms: A flow cytometer gives signals particle by particle.
Test [6] concerns SK-MEL-5. Nature of the test: Induction of apoptosis in human SK-MEL-5 cells assessed as late apoptotic cells at 10 uM incubated for 24 hrs by Annexin-V/FITC and PI staining based flow cytometry analysis (reference value: 0.26 %). In kind it is functional.
Test [7] concerns SK-MEL-5. Nature of the test: Induction of apoptosis in human SK-MEL-5 cells assessed as necrotic cells at 10 uM incubated for 24 hrs by Annexin-V/FITC and PI staining based flow cytometry analysis (reference value: 1.56 %). The class given is functional.
The subject of test [8] is SK-MEL-5. Nature of the test: Induction of cell cycle arrest in human SK-MEL-5 cells assessed as accumulation at pre G1 phase at 10 uM incubated for 24 hrs by FACSCalibur flow cytometry analysis (reference value: 2.43%). In kind it is functional.
In test [9] the test system is SK-MEL-5. Nature of the test: Induction of cell cycle arrest in human SK-MEL-5 cells assessed as accumulation of diploid cells at G1 phase at 10 uM incubated for 24 hrs by FACSCalibur flow cytometry analysis (reference value: 69.23%). In kind it is functional.
Test [10] concerns SK-MEL-5. Nature of the test: Induction of cell cycle arrest in human SK-MEL-5 cells assessed as accumulation of diploid cells at G2/M phase at 10 uM incubated for 24 hrs by FACSCalibur flow cytometry analysis (reference value: 13.22%). The class given is functional.
Test [11] relates to SK-MEL-5. Nature of the test: Induction of cell cycle arrest in human SK-MEL-5 cells assessed as accumulation of diploid cells at S phase at 10 uM incubated for 24 hrs by FACSCalibur flow cytometry analysis (reference value: 17.55%). The class given is functional.
The subject of test [12] is SK-MEL-5. Nature of the test: Induction of cell cycle arrest in human SK-MEL-5 cells assessed as cell aggregates at 10 uM incubated for 24 hrs by FACSCalibur flow cytometry analysis (reference value: 1.79%). The class given is functional.
Test [13] deals with SK-MEL-5. The test can be described thus: Induction of cell cycle arrest in human SK-MEL-5 cells assessed as cell debris at 10 uM incubated for 24 hrs by FACSCalibur flow cytometry analysis (reference value: 1.38%). In kind it is functional.

The source made the active and inactive calls. No cut-off for these calls is given here.

In general, IC50 refers to the concentration at which inhibition is half-maximal. Consider `CN(C)c1ccc(/C=N/Nc2nc(Nc3ccccc3)nc(Nc3ccc(S(N)(=O)=O)cc3)n2)cc1`, for which, in the test with RXF 393, the IC50 came out at 7.21 µM.
Consider `NS(=O)(=O)c1ccc(Nc2nc(N/N=C/c3ccccn3)nc(Nc3ccccc3)n2)cc1`, for which the result in the test with SK-MEL-5 [1] and with SK-MEL-5 [2] was Active. Also, the Activity with SK-MEL-5 [3] was 23%; with SK-MEL-5 [5] it was 4.28%; in the test with SK-MEL-5 [6] it was 24.97%; with SK-MEL-5 [7], 7.99%; in the test on SK-MEL-5 [8], 37.24%; in the test on SK-MEL-5 [9], 58.78%. The Activity with SK-MEL-5 [10] amounted to 8.81%; in the test on SK-MEL-5 [11], 32.41%; with SK-MEL-5 [12], 1.85%; in the test on SK-MEL-5 [13], 1.42%. The values for the IC50 in the test with SK-MEL-5 [4], in the test with HCC 2998 and in the test on RXF 393 were 8.33 µM, 1.93 µM and 3.11 µM, respectively.

For the origin of these results see ChEMBL document CHEMBL5154747, “Discovery of new carbonic anhydrase IX inhibitors as anticancer agents by toning the hydrophobic and hydrophilic rims of the active site to encounter the dual-tail approach” (Eur J Med Chem, 2022).
